Data reported in US20130253069A1, “Use of DMSO for Destroying Adipocytes and Eliminating Cellulite and Adiposities” (priority 2010, published 2013).
Where two headings read alike, the source gives them in different places.

Assays:
[1] = tested on: cyclic AMP phosphodiesterase; details: present in fat cells; high concentrations; cited from earlier work
[2] = cited from earlier work
serum cholesterol = details: cats, given with water along with a cholesterol-based diet; cited from earlier work
adipocytes (fat cells) = assay: Adipocytes destroyed per application of DMSO; format: in vivo
[3] = cited from earlier work; remark: listed apart in the source
[4] = tested on: cellulite and adiposities; assay: Study of efficacy of topically delivered DMSO for eliminating cellulite and adiposities; format: in vivo, human
Source text: This study was exclusively designed to determine the efficacy and safety of DMSO delivered in several manners and in different concentrations for eliminating cellulite and adiposities.
This is a multicentric, prospective, longitudinal study, where clinical and instrumental parameters are used to detect results regarding different formulations and application forms performed. It is not possible to perform a double-blind study with placebo due to the strong odor of DMSO present in formulations, easy to identify.
A group of 145 subjects, with ages ranging from 18 to 55 years (average 36.5 y.o.), having cellulite for at least 2 years, were recruited from April, 2008 until July, 2008.
Inclusion criteria were: presence of cellulite (stages 1, 2, 3, and 4) in subjects of groups A and B; accentuated abdominal fat in the subjects of the group C; age ranging from 18 to 55 years old and interest in entering the study.
Exclusion criteria were: after liposculpture, other treatments anti-cellulite ongoing or 30 days before entering the study, pregnant and nursing women, cancer, people with hormonal alterations, endocrinological disorders, and people under hormonal or endocrinal treatment.
(§1) 145 subjects were randomized in 3 groups and received 3 different treatments according to established method. Group A entered 29 female subjects having Dermal Paniculopathy (cellulite) stages 1 and 2, Group B entered 58 female subjects with Dermal Paniculopathy (cellulite) stages 3 and 4, and Group C entered 58 subjects, 35 female and 23 male, all having pronounced abdominal fat.
(§2) The three products were formulated as follows: group A consisted in an aqueous solution of DMSO at 20% and aerosol spray to 5%, group B consisted in an aqueous solution of DMSO at 50% and aerosol spray 5%, and group C consisted in an aqueous solution of DMSO at 90% and aerosol spray at 5%.
The aqueous solution was used in the massage applied before the delivery of spray. Each massage session lasted 45 minutes in average.
After massage, the spray was applied at 30 cm (11.80 in) of distance for approximately 5 seconds in each site.
After the procedure as above, a drainage massage was applied for 20 minutes.
In total, each session last 1 hour and 30 minutes in average.
Two sessions were applied per week during 5 weeks.
All subjects were analyzed at the end of each session, and especially after the 10 sessions.
Evaluation methods were: digital photographs (before and after), clinical observation, measurement of thigh circumference, pinching test (for pain), measurement of fat with plicometer/adipometer, measurement of abdominal circumference, measurement of hips and waist circumference, and questionnaire with questions about swelling, pain and heaviness in the legs, cellulite appearance, weight, general efficacy of the product, tolerability, satisfaction with the treatment, sensation of wellbeing, increased diuresis, urine color, among others.

[5] = set-up: species or system human; details: in vivo
Source text: as §1, §2
The aqueous solution was used in the massage applied before the delivery of spray. Each massage session lasted 45 minutes in average. […]
Adverse reactions commonly reported in a period of 2 hours right after the application were: nausea (27 subjects or 19%), headache (15 subjects or 11%), feeling of burn in application site (11 subjects or 8%), itch and redness in application site (14 subjects or 10%), hypotension (7 subjects or 5%), odor and taste similar to garlic or corn (136 subjects or 98%), dry mouth (32 subjects or 23%), increased diuresis (98 subjects or 70%), strong urine color and odor (68 subjects or 49%). These reactions were evaluated as light and transitory.

fat cells = details: cited from earlier work
[6] = cited from earlier work; remark: listed apart in the source
[7] = humans, dermal delivery of a DMSO solution at 70%
[8] = humans, plasma, dermal delivery of a DMSO solution at 70%
[9] = % of subjects in this category after 10 topical sessions
[10] = % of subjects in this category after 10 topical sessions, regular diet and physical activities kept
[11] = reports among subjects with accentuated venous insufficiency and varicose veins (30% of 139)
[12] = topical DMSO 80%, gram/kg per day, 60 subjects, 14 days
[13] = humans, after DMSO administration

SMILES: C[S+](C)[O-] [DMSO, Dimethyl Sulfoxide]
- activity of cyclic AMP phosphodiesterase, soluble and particulate [1]: inhibited
- teratogenic effects ([2]; animals exposed): Teratogenic effects were observed
- ocular findings in animals ([2]; studies in animals): changes to lenses
- prevention of expected increase of serum cholesterol (serum cholesterol): 50%
- amount of adipocytes destroyed per session/application (adipocytes (fat cells)): 50,000-500,000 cells
- dose excreted in the air as dimethyl sulfide ([3]; estimate of Kolb et al. (1965)): approximately 3 % of the dose
- dose recovered in urine ([3]; humans, 1 g/kg dermally, fluid form and gel form, 10 subjects each): less than 10 % of the dose
- Urinary excretion of DMSO ([3]; humans, dermal administration): 30-68 % of the dose
- Total urinary excretion of DMSO (average) [3, 7]: 13 % dose
- dose accounted for by urinary excretion of DMSO and DMSO2 (average) [3, 7]: 30.8 % dose
- duration of urinary excretion of DMSO [3, 7]: 48 h
- time of maximum plasmatic levels of DMSO [3, 7]: 4 to 8 h
- time of peak of plasmatic levels ([3]; humans, dermally administered): 4 to 8 h
- Urinary excretion of DMSO ([3]; humans, oral administration): approximately 13 % of the dose
- time to plasma peak ([3]; humans, orally administered): ≤ 4 h
- half-life [3, 8]: 11 to 14 h
- time after which DMSO could not be detected any longer [3, 8]: 36 to 48 h
- time after which serum levels of DMSO were undetectable ([3]; humans): 120 h
- share of excretion via air ([3]; in vivo): less than 3%
- General satisfaction after all 10 sessions: Bad ([4]; % of subjects in this category): 0%
- General satisfaction after all 10 sessions: Excellent ([4]; % of subjects in this category): 72%
- General satisfaction after all 10 sessions: Good ([4]; % of subjects in this category): 6%
- General satisfaction after all 10 sessions: Great ([4]; % of subjects in this category): 22%
- General satisfaction after all 10 sessions: Regular ([4]; % of subjects in this category): 0%
- Abdominal circumference reduction: 3.1-5 cm [4, 9]: 39%
- Abdominal circumference reduction: 5.1 cm and more [4, 9]: 29%
- Abdominal circumference reduction: Up to 3 cm [4, 9]: 32%
- Diuresis improvement: Bad [4, 9]: 0%
- Diuresis improvement: Excellent [4, 9]: 28%
- Diuresis improvement: Good [4, 9]: 25%
- Diuresis improvement: Great [4, 9]: 39%
- Diuresis improvement: Regular [4, 9]: 8%
- General efficacy: Bad [4, 9]: 0%
- General efficacy: Excellent [4, 9]: 74%
- General efficacy: Good [4, 9]: 9%
- General efficacy: Great [4, 9]: 17%
- General efficacy: Regular [4, 9]: 0%
- General feeling of improvement: Bad [4, 9]: 0%
- General feeling of improvement: Excellent [4, 9]: 78%
- General feeling of improvement: Good [4, 9]: 10%
- General feeling of improvement: Great [4, 9]: 12%
- General feeling of improvement: Regular [4, 9]: 0%
- Hip circumference reduction: 2.6-4.5 cm [4, 9]: 43%
- Hip circumference reduction: 4.5 cm and more [4, 9]: 26%
- Hip circumference reduction: Up to 2.5 cm [4, 9]: 31%
- Improvement from orange peel skin appearance: Bad [4, 9]: 0%
- Improvement from orange peel skin appearance: Excellent [4, 9]: 76%
- Improvement from orange peel skin appearance: Good [4, 9]: 11%
- Improvement from orange peel skin appearance: Great [4, 9]: 13%
- Improvement from orange peel skin appearance: Regular [4, 9]: 0%
- Mood improvement: Bad [4, 9]: 0%
- Mood improvement: Excellent [4, 9]: 26%
- Mood improvement: Good [4, 9]: 33%
- Mood improvement: Great [4, 9]: 41%
- Mood improvement: Regular [4, 9]: 0%
- Reduced pain in cellulite sites: Bad [4, 9]: 0%
- Reduced pain in cellulite sites: Excellent [4, 9]: 21%
- Reduced pain in cellulite sites: Good [4, 9]: 39%
- Reduced pain in cellulite sites: Great [4, 9]: 27%
- Reduced pain in cellulite sites: Regular [4, 9]: 13%
- Thigh circumference reduction: 2.1-4 cm [4, 9]: 48%
- Thigh circumference reduction: 4.1 cm and more [4, 9]: 24%
- Thigh circumference reduction: Up to 2 cm [4, 9]: 28%
- well-being: Bad [4, 9]: 5%
- well-being: Excellent [4, 9]: 20%
- well-being: Good [4, 9]: 28%
- well-being: Great [4, 9]: 44%
- well-being: Regular [4, 9]: 3%
- Weight loss: 2.1-3 kg [4, 10]: 44%
- Weight loss: 3 kg and more [4, 10]: 25%
- Weight loss: Up to 2 kg [4, 10]: 31%
- Decreased and whitened macrovaricose veins [4, 11]: 39%
- Decreased pain in legs, arms and hands [4, 11]: 62%
- Decreased swelling and heaviness in the legs [4, 11]: 73%
- Decreased tingling legs and arms [4, 11]: 55%
- Discontinuation of treatment due to adverse reactions [5]: No patient discontinued the treatment due to adverse reactions
- time at which increase of cyclic AMP due to DMSO was detected (fat cells; after addition of the lipolytic agents, 1.10 M DMSO): 40 s
- increase of lipolysis due to glucagon, norepinephrine or theophylline (fat cells): potentialized
- lipolysis (fat cells): increased
- oxidation of glucose stimulated by insulin (fat cells): decreased
- eosinophilia ([6]; DMSO at 80% gram/kilogram per day topically for 14 days and 90 days): can cause eosinophilia
- ocular adverse effect ([6]; subjects receiving topical solution): No ocular adverse effect was observed
- dizziness [6, 12]: 18%
- dry nasal passages, dry or painful throat and cough [6, 12]: Less than 5%
- headache [6, 12]: 42%
- sedation [6, 12]: 52%
- duration of odor similar to garlic in the body ([6]; topical application): up to 72 hours

SMILES: CSC [dimethyl sulfide]
- accumulation of cyclic AMP due to norepinephrine (fat cells): did not cause any changes

SMILES: CS(C)(=O)=O [DMSO2, Dimethyl sulphona]
- time DMSO2 persisted in plasma [3, 13]: approximately 400 hours
- time at which DMSO2 appeared in plasma [3, 13]: 48 h
- Excretion of DMSO2 ([3]; humans, dermal administration of DMSO): 21-23%
- duration of urinary excretion of DMSO2 [3, 7]: 456 h
- plasmatic levels of DMSO2 after 312 hours [3, 7]: low but still detectable
- time at which urinary excretion of DMSO2 became more significant [3, 7]: approximately 8 hours
- time of maximum plasmatic levels of DMSO2 [3, 7]: 60 to 70 h
- total average amount of DMSO2 excreted in urine [3, 7]: 17.8 % dose of DMSO
- Excretion of DMSO2 ([3]; humans, oral administration of DMSO): 5-10%
- accumulation of cyclic AMP due to norepinephrine (fat cells): did not cause any changes
